Experimental data reported in patent publication US20240270762A1, “PENICILLIN-BINDING PROTEIN INHIBITORS” (priority 2021, published 2024).
pIC50: −log10 of the molar value. ≈ marks a conversion by molar mass, not a printed value.

How the values were obtained:
[1] = system: B. thailandensis ATCC 700388; assay: microbe, parasite or virus in culture; type: cell-based; conditions: Burkholderia thailandensis, ATCC700388, read-out: Minimum inhibitory concentration (MIC), B. thailandensis ATCC 700388
A. baumannii CDC-0036 = assay: microbe, parasite or virus in culture; type: cell-based; conditions: Acinetobacter baumannii, CDC0036, read-out: MIC, A. baumannii CDC-0036
[2] = molecular target: T1, PBP3 from Pseudomonas aeruginosa (PAO1) (Pseudomonas aeruginosa, UniProt G3XD46); assay: Bocillin-FL fluorescence polarization competition binding, P. aeruginosa PBP3; conditions: Binding affinity to P. aeruginosa PBP3; fluorescence polarization competition binding assay using Bocillin-FL; read-out: P. aeruginosa PBP3 Potency
T1 construct: made in house
T1 sequence (G3XD46 whole entry): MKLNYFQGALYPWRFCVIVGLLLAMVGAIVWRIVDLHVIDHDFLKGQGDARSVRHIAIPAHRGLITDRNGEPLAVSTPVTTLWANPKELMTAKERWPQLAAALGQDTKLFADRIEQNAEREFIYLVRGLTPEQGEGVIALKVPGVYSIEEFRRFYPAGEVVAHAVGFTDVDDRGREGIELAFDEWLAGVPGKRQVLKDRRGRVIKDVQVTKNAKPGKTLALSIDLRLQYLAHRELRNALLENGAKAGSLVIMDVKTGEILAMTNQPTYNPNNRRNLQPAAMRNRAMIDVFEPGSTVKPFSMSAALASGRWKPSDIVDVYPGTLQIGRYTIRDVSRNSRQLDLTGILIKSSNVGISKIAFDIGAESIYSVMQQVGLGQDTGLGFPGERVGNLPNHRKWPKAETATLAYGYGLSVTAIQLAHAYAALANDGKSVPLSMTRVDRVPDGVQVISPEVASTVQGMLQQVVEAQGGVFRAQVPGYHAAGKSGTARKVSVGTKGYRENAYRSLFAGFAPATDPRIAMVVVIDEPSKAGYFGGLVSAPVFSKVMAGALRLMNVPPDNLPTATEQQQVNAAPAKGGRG
Outline: (§1)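 Purified PBPs pre-incubated with inhibitor (E. coli PBP3 1.5 μM, 30 min; P. aeruginosa PBP3 0.75 μM, A. baumannii PBP1a 1 μM and PBP3 0.2 μM, 15 min), then Bocillin-FL 0.1 μM (0.05 μM for PBP1a) added; FP read up to 60 min. EC50 = concentration halving bound Bocillin-FL.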

A. baumannii ATCC 17978 = assay: microbe, parasite or virus in culture; type: cell-based; conditions: Acinetobacter baumannii, ATCC17978, read-out: MIC, A. baumannii ATCC 17978
P. aeruginosa CDC-0054 = assay: microbe, parasite or virus in culture; type: cell-based; conditions: Pseudomonas aeruginosa, CDC0054, read-out: Minimum inhibitory concentration, P. aeruginosa CDC-0054
A. baumannii CDC-0045 = assay: microbe, parasite or virus in culture; type: cell-based; conditions: Acinetobacter baumannii, CDC0045, read-out: MIC, A. baumannii CDC-0045
P. aeruginosa CDC-0090 = assay: microbe, parasite or virus in culture; type: cell-based; conditions: Pseudomonas aeruginosa, CDC0090, read-out: Minimum inhibitory concentration, P. aeruginosa CDC-0090
A. baumannii 1258916 = assay: microbe, parasite or virus in culture; type: cell-based, Acinetobacter baumannii; conditions: Acinetobacter baumannii, 1258916, read-out: MIC, A. baumannii 1258916
[3] = molecular target: T2, PBP3 from Acinetobacter baumannii (ATCC 19606) (Acinetobacter baumannii, UniProt A0ABX6CK25); assay: Bocillin-FL fluorescence polarization competition binding, A. baumannii PBP3; conditions: fluorescence polarization competition binding assay using Bocillin-FL; read-out: A. baumannii PBP3 Potency
T2 sequence (A0ABX6CK25 64-610): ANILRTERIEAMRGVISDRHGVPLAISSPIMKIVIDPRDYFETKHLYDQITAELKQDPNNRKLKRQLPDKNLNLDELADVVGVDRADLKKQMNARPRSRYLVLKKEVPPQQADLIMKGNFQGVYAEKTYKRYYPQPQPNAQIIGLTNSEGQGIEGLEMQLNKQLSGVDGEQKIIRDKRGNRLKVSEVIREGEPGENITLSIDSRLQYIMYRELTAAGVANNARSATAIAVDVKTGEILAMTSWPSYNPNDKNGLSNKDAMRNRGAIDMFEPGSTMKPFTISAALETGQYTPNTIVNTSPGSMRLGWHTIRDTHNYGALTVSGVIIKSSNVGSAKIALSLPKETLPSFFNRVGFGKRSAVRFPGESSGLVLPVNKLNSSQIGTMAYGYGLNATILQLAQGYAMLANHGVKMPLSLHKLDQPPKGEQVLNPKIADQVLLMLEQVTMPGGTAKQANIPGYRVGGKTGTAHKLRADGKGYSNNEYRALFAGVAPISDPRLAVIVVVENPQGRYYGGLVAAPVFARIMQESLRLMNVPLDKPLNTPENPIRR
Outline: as §1

P. aeruginosa ATCC 27853 = assay: microbe, parasite or virus in culture; type: cell-based; conditions: Pseudomonas aeruginosa, ATCC27853, read-out: Minimum inhibitory concentration, P. aeruginosa ATCC 27853

SMILES	MIC [1] [µg/mL]	MIC (A. baumannii CDC-0036) [µg/mL]	pIC50 [2]	MIC (A. baumannii ATCC 17978) [µg/mL]	MIC (P. aeruginosa CDC-0054) [µg/mL]	MIC (A. baumannii CDC-0045) [µg/mL]	MIC (P. aeruginosa CDC-0090) [µg/mL]	MIC (A. baumannii 1258916) [µg/mL]	pIC50 [3]	MIC (P. aeruginosa ATCC 27853) [µg/mL]
O=C(NCCCN1CCN(C(=O)NC(C(=O)N[C@H]2Cc3ccc(F)c(C(=O)O)c3OB2O)c2cc(F)c(O)c(O)c2Cl)C(=O)C1=O)c1cc(F)ncc1F (mixture of isomers) [Example 405]	< 1	2 to 4	> 5.00	< 1	2 to 4	< 1	2 to 4	2 to 4	> 5.00	2 to 4
O=C(NCCCN1CCN(C(=O)N[C@@H](C(=O)N[C@H]2Cc3ccc(F)c(C(=O)O)c3OB2O)c2cc(F)c(O)c(O)c2Cl)C(=O)C1=O)c1cc(F)nc(F)c1 (racemic) [Example 401]	> 128	2 to 4 (≈ 2.56 to 5.12 µM)	> 5.00	< 1	< 1	< 1	< 1	< 1	> 5.00	2 to 4 (≈ 2.56 to 5.12 µM)
O=C(NCCCN1CCN(C(=O)N[C@@H](C(=O)N[C@H]2Cc3ccc(F)c(C(=O)O)c3OB2O)c2cc(F)c(O)c(O)c2Cl)C(=O)C1=O)c1ccc(O)cc1F (racemic) [Example 417]	> 128	2 to 4 (≈ 2.57 to 5.14 µM)	> 5.00	< 1	8 to 16 (≈ 10.3 to 20.6 µM)	< 1	8 to 16 (≈ 10.3 to 20.6 µM)	< 1	4.30 to 5.00	8 to 16 (≈ 10.3 to 20.6 µM)
O=C(NCCCN1CCN(C(=O)N[C@@H](C(=O)N[C@H]2Cc3ccc(F)c(C(=O)O)c3OB2O)c2cc(F)c(O)c(O)c2Cl)C(=O)C1=O)c1c(F)cc(O)cc1F (racemic) [Example 420]	2 to 4 (≈ 2.51 to 5.03 µM)	2 to 4 (≈ 2.51 to 5.03 µM)	> 5.00	< 1	2 to 4 (≈ 2.51 to 5.03 µM)	< 1	< 1	2 to 4 (≈ 2.51 to 5.03 µM)	> 5.00	2 to 4 (≈ 2.51 to 5.03 µM)
CS(=O)(=O)N1CCN(C(=O)N[C@@H](C(=O)N[C@H]2Cc3cccc(C(=O)O)c3OB2O)c2ccc(P(=O)(O)O)cc2)C1=O (single isomer, unassigned) [Example 6]	8 to 16 (≈ 13.1 to 26.2 µM)	32 to 64 (≈ 52.4 to 105 µM)	> 5.00	2 to 4 (≈ 3.28 to 6.55 µM)	> 128	> 128	> 128	32 to 64 (≈ 52.4 to 105 µM)	> 5.00	32 to 64 (≈ 52.4 to 105 µM)
O=C(O)c1c(F)ccc2c1OB(O)[C@@H](NC(=O)[C@@H](NC(=O)N1CCN(C3CCN(C(=O)Nc4ccc(O)cc4)CC3)C1=O)c1cc(F)c(O)c(O)c1Cl)C2 (single isomer, unassigned) [Example 467]	< 1	< 1	> 5.00	< 1	2 to 4 (≈ 2.59 to 5.18 µM)	< 1	< 1	< 1	> 5.00	< 1
O=C(O)c1c(F)ccc2c1OB(O)[C@@H](NC(=O)[C@H](NC(=O)N1CCN(C3CCN(C(=O)Nc4ccc(O)cc4)CC3)C1=O)c1cc(F)c(O)c(O)c1Cl)C2 (single isomer, unassigned) [Example 468]	< 1	< 1	> 5.00	< 1	< 1	< 1	< 1	< 1	> 5.00	< 1
O=C(NCCCN1CCN(C(=O)N[C@H](C(=O)N[C@H]2Cc3ccc(F)c(C(=O)O)c3OB2O)c2cc(F)c(O)c(O)c2Cl)C(=O)C1=O)c1ccc(O)cc1Cl (single isomer, unassigned) [Example 470]	> 128	32 to 64 (≈ 40.3 to 80.6 µM)	4.30 to 5.00	< 1	< 1	> 128	2 to 4 (≈ 2.52 to 5.04 µM)	> 128	4.30 to 5.00	2 to 4 (≈ 2.52 to 5.04 µM)
O=C(NCCCN1CCN(C(=O)N[C@@H](C(=O)N[C@H]2Cc3ccc(F)c(C(=O)O)c3OB2O)c2cc(F)c(O)c(O)c2Cl)C(=O)C1=O)c1ccc(O)cc1Cl (single isomer, unassigned) [Example 471]	< 1	2 to 4 (≈ 2.52 to 5.04 µM)	> 5.00	< 1	< 1	< 1	< 1	< 1	> 5.00	< 1
O=C(NCCCN1CCN(C(=O)N[C@H](C(=O)N[C@H]2Cc3ccc(F)c(C(=O)O)c3OB2O)c2cc(F)c(O)c(O)c2Cl)C(=O)C1=O)c1cc(F)c(O)cc1F (single isomer, unassigned) [Example 472]	2 to 4 (≈ 2.51 to 5.03 µM)	8 to 16 (≈ 10.1 to 20.1 µM)	4.30 to 5.00	< 1	< 1	8 to 16 (≈ 10.1 to 20.1 µM)	2 to 4 (≈ 2.51 to 5.03 µM)	8 to 16 (≈ 10.1 to 20.1 µM)	> 5.00	2 to 4 (≈ 2.51 to 5.03 µM)
O=C(NCCCN1CCN(C(=O)N[C@@H](C(=O)N[C@H]2Cc3ccc(F)c(C(=O)O)c3OB2O)c2cc(F)c(O)c(O)c2Cl)C(=O)C1=O)c1cc(F)c(O)cc1F (single isomer, unassigned) [Example 473]	< 1	2 to 4 (≈ 2.51 to 5.03 µM)	> 5.00	< 1	< 1	< 1	2 to 4 (≈ 2.51 to 5.03 µM)	2 to 4 (≈ 2.51 to 5.03 µM)	> 5.00	2 to 4 (≈ 2.51 to 5.03 µM)
O=C(NCCCS(=O)(=O)N1CCN(C(=O)NC(C(=O)N[C@H]2Cc3ccc(F)c(C(=O)O)c3OB2O)c2cc(F)c(O)c(O)c2Cl)C1=O)Nc1cccc(O)c1 (stereo partly drawn) [Example 277, (3R)-3-(2-(2-chloro-5-fluoro-3,4-dihydroxyphenyl)-2-(3-((3-(3-(3-hydroxyphenyl)ureido)propyl)sulfonyl)-2-oxoimidazolidine-1-carboxamido)acetamido)-7-fluoro-2-hydroxy-3,4-dihydro-2H-benzo[e][1,2]oxaborinine-8-carboxylic acid]	32 to 64 (≈ 39.5 to 78.9 µM)	2 to 4 (≈ 2.47 to 4.93 µM)	> 5.00	< 1	2 to 4 (≈ 2.47 to 4.93 µM)	2 to 4 (≈ 2.47 to 4.93 µM)	2 to 4 (≈ 2.47 to 4.93 µM)	2 to 4 (≈ 2.47 to 4.93 µM)	> 5.00	2 to 4 (≈ 2.47 to 4.93 µM)
